Test results taken from paper PMC6271975, “Structure-Activity Relationship Study of Sesquiterpene Lactones and Their Semi-Synthetic Amino Derivatives as Potential Antitrypanosomal Products” (Molecules, 2014).
“Also recorded” adds a separate entry of the source. Where a name gives a salt, the structure may show the parent alone. Read-outs that look alike come from different tables or passages of the source.

Tests used:
[1] = system: rat skeletal myoblasts (L6-cells); test: cells; type: cell-based; details: Rattus norvegicus, L6; cytotoxicity; 70 h incubation; average of three independent assays; read-out: L6 cells IC50
Experimental: The cytotoxicity assay was performed with rat skeletal myoblasts (L6-cells) seeded in 100 μL RPMI 1640 in 96-well micro titre plates, using the Alamar Blue assay described above. After 24 h the medium was removed and replaced by 100 μL of fresh RPMI 1640 with serial threefold drug dilution. Podophyllotoxin (purity > 95%, Sigma-Aldrich) was used as a reference drug. After 70 h of incubation under a humidified 5% CO2 atmosphere, 10 μL of the Alamar blue marker (see above) was added to all wells. The plates were incubated for an additional 2 h. A Spectramax Gemini XS micro plate fluorescence reader (Molecular Devices) was used to read the plates using an excitation wavelength of 536 nm and an emission wavelength of 588 nm. The IC50s were calculated from the sigmoidal growth inhibition curves using Softmax Pro software (Molecular Devices).

[2] = system: T. b. rhodesiense STIB900; test: Acute mouse sleeping sickness model (STIB 900); type: in vivo, NMRI mice; details: for signs of toxicity in mice: acute mouse model; for survival: po, average of all mice, untreated controls euthanized at day 10 post infection
Experimental: This model mimics the first stage of the human African trypanosomiasis. Adult female NMRI mice were purchased from Janvier (St. Berthevin, France). They weighed between 20 and 25 g at the beginning of the study and were kept under standard conditions at 22 °C and 60%–70% humidity in macrolon type III cages with food pellets and water ad libitum. […] The samples were first dissolved in 100% DMSO, followed by addition of distilled H2O to a final DMSO concentration of 10%. For determination of the in vivo antitrypanosomal activity, mice were infected intraperitoneally with 1 × 10^4 STIB900 bloodstream forms. Experimental groups of four mice were treated orally once a day on four consecutive days from day 3 to day 6 post infection. A control group of four mice was infected, but remained untreated. The determination of the parasitaemia was done on day 7 post infection. […] Five μL of this mixture were transferred to a glass slide and covered with an 18 × 18 mm cover slide. The sample was examined under a light microscope (200-fold magnification) and parasites were counted in 3 of the 16 squares of the grid.

[3] = system: T. b. rhodesiense STIB 900 bloodstream forms; test: In vitro antitrypanosomal Alamar Blue assay; type: cell-based, Trypanosoma brucei rhodesiense; details: Trypanosoma brucei; 70 h incubation; average of three independent assays; read-out: T. brucei STIB 900 IC50
Experimental: Evaluation of in vitro antiprotozoal activity against T. b. rhodesiense was done using the Alamar Blue assay to determine IC50s as previously described. Serial threefold dilution were prepared in 96-well micro titre plates, and 4000 T. b. rhodesiense STIB 900 bloodstream forms in 50 μL were added to each well except for the negative controls. Melarsoprol (Arsobal®, purity > 95%, Sanofi-Aventis, Meyrin, Switzerland) was used as reference drugs. […] The IC50 values were calculated from the sigmoidal growth inhibition curves using Softmax Pro software (Molecular Devices).

[4] = system: rat skeletal myoblasts (L6-cells); parameters: method as in PMID 22331812, PMID 24080104, PMID 21624443, PMID 22396915; details: cytotoxicity; previously reported compounds included for comparison; cited from earlier work
[5] = system: T. b. rhodesiense STIB 900 bloodstream forms; parameters: method as in PMID 22331812, PMID 24080104, PMID 21624443, PMID 22396915; details: cited from earlier work
[6] = system: T. b. rhodesiense STIB900; parameters: method as in PMID 22331812, PMID 24080104; details: intraperitoneal, 10 mg/kg/b.i.d. for four consecutive days; cited from earlier work

| Compound | IC50 [1] [nM] | signs of toxicity in mice ([2]; oral administration) | in vivo efficacy ([2]; oral administration, mean survival time versus control) | survival ([2]; 4 × 25 mg/kg) [days] | survival ([2]; 4 × 50 mg/kg) [days] | IC50 [3] [nM] | parasitemia on day 7 after infection ([2]; oral, 50 mg/kg body weight/day, four mice) | IC50 [4] [nM] | SI (Selectivity Index) ([5]; IC50 against L6 cells divided by IC50 against STIB 900 strain, previously reported compounds) | IC50 ([5]; previously reported compounds included for comparison, compound 9 tested once, read-out: T. brucei STIB 900 IC50) [nM] | cure of mice [6] | parasitemia [6] |
| --- | --- | --- | --- | --- | --- | --- | --- | --- | --- | --- | --- | --- |
| C=C(CO)C(=O)OC1CC(=C)C2CC(O)C(=C)C2C2OC(=O)C(CN(C)C)C12 (centres unmarked) [Compound 19, Cynaropicrin dimethylamine adduct hydrochloride] | 5200 ± 1300 | less signs of toxicity | no in vivo efficacy; also recorded: did not show any in vivo efficacy | 8.5 | 10 | 500 ± 3 | – | – | – | – | – | – |
| C=C(CO)C(=O)O[C@H]1CC(=C)[C@@H]2C[C@H](O)C(=C)[C@@H]2[C@H]2OC(=O)C(=C)[C@@H]21 [Compound 1, Cynaropicrin] | – | euthanized on day 10 post infection due to obvious signs of cytotoxicity | – | – | 9.5 | – | reduced parasitemia | 2200 ± 300 | 7.8 | 300 ± 1 | not able to cure the mice | parasitemia was decreased over several days |
